Source: article PMC7019903 (Viruses, 2020)
Like-named read-outs stand apart in the source and are kept apart here.

How the values were obtained:
[1] = test system: Hantaan (HTNV) (strain 76–118); assay: microbe, parasite or virus in culture; type: cell-based, Hantaan virus; details: for EC50: read-out: HTNV EC50
in vitro [2] = details: African green monkey
in vitro [3] = details: Mesocricetus auratus (hamster)
in vitro [4] = details: Cercopithecus aethiops (monkey)
in vitro [5] = details: human
in vitro [6] = details: Bos taurus (cattle)
HTNV [7] = details: read-out: EC50 against HTNV; cited from earlier work
HTNV [8] = type: cell-based, Hantaan virus
[9] = Orthohantavirus hantanense, Vero C1008, 168 h

| SMILES | EC50 [1, 9] [µM] | CC50 (in vitro [2]) [µM] | CC50 (in vitro [3]) [µM] | CC50 (in vitro [4]) [µM] | CC50 (in vitro [5]) [µM] | CC50 (in vitro [6]) [µM] | other results |
| --- | --- | --- | --- | --- | --- | --- | --- |
| CC(=O)Nc1ccc(-n2nnc3cc(Cl)c(Cl)cc32)cc1 [1b] | > 20 | 20 | 53 | – | – | – | – |
| CCCNC(=O)Nc1ccc(-n2nc3cc(C)c(C)cc3n2)cc1 [4l] | > 30 | > 30 | > 100 | > 100 | > 100 | > 100 | – |
| CCCC(=O)N(C(=O)CCC)c1ccc(-n2nc3cc(Cl)c(Cl)cc3n2)cc1 [2e] | > 30 | > 30 | 62 | ≥ 100 | – | – | – |
| C#Cc1ncn([C@@H]2O[C@H](CO)[C@@H](O)[C@H]2O)n1 [ETAR, 1-beta-d-ribofuranosyl-3-ethynyl-[1,2,4] triazole] | – | – | – | – | – | – | EC50 (HTNV [7]): 10 µM |
| CCC(=O)N(C(=O)CC)c1ccc(-n2nc3cc(Cl)c(Cl)cc3n2)cc1 [2d] | > 30 | > 30 | 26 | ≥ 100 | – | 73 | – |
| CCCCNC(=O)Nc1ccc(-n2nc3cc(Cl)c(Cl)cc3n2)cc1 [2m] | > 30 | > 30 | > 100 | 95 | – | – | – |
| O=C(Nc1ccc(-n2nc3ccccc3n2)cc1)NC1CCCCC1 [3n] | > 30 | > 30 | > 100 | 95 | > 100 | > 100 | – |
| COc1cc(C(=O)Nc2ccc(-n3nc4cc(C)c(C)cc4n3)cc2)cc(OC)c1OC [4j, N-(4-(5,6-dimethyl-2H-benzo[d][1,2,3]triazol-2-yl)phenyl)-3,4,5-trimethoxybenzamide] | > 30 | > 30 | > 100 | > 100 | – | > 100 | melting point: 272 to 273 °C |
| Nc1ccc(-n2nnc3cc(Cl)c(Cl)cc32)cc1 [1a] | > 30 | > 30 | > 100 | – | ≥ 100 | – | – |
| O=C(Nc1ccc(-n2nc3cc(Cl)c(Cl)cc3n2)cc1)c1ccc(Cl)cc1 [2g] | > 30 | > 30 | > 100 | 95 | – | – | – |
| COc1cc(C(=O)Nc2ccc(-n3nnc4cc(Cl)c(Cl)cc43)cc2)cc(OC)c1OC [1j] | > 30 | > 30 | > 100 | – | – | – | – |
| CCCNC(=O)Nc1ccc(-n2nc3cc(Cl)c(Cl)cc3n2)cc1 [2l] | ≤ 5 | 30 | 40 | – | – | – | Selectivity Index [1]: 6; EC50 [1]: 5 µM; effect on viral titer (result in words) (HTNV [8]): significant reduction of viral titer |
| CCCCNC(=O)Nc1ccc(-n2nc3cc(C)c(C)cc3n2)cc1 [4m] | > 30 | > 30 | > 100 | > 100 | > 100 | > 100 | – |
| O=C(Nc1ccc(-n2nnc3cc(Cl)c(Cl)cc32)cc1)c1ccc(Cl)cc1 [1g] | ≥ 30 | > 30 | > 100 | ≥ 100 | – | – | – |
| CCC(=O)Nc1ccc(-n2nnc3cc(Cl)c(Cl)cc32)cc1 [1c] | > 20 | 20 | 54 | – | – | ≥ 100 | – |
| Cc1ccc(C(=O)Nc2ccc(-n3nc4cc(C)c(C)cc4n3)cc2)cc1 [4f, N-(4-(5,6-dimethyl-2H-benzo[d][1,2,3]triazol-2-yl)phenyl)-4-methylbenzamide] | > 30 | > 30 | > 100 | > 100 | > 100 | > 100 | melting point: 295 to 296 °C |
| NC(=O)c1ncn([C@@H]2O[C@H](CO)[C@@H](O)[C@H]2O)n1 [RBV, Ribavirin, reference compound] | 37 | > 100 | – | – | – | – | Selectivity Index [1]: > 2; effect on viral titer (result in words) (HTNV [8]; 50 µM): significant decline in viral titer |
| COc1cc(C(=O)Nc2ccc(-n3nc4cc(Cl)c(Cl)cc4n3)cc2)cc(OC)c1OC [2j] | ≤ 5 | > 30 | 35 | – | – | – | Selectivity Index [1]: > 7.5; EC50 [1]: 4 µM; effect on viral titer (result in words) (HTNV [8]): significant reduction of viral titer; reduction of viral titer (HTNV [8]): 2.14 log10 |
| COc1cc(C(=O)Nc2ccc(-n3nc4ccccc4n3)cc2)cc(OC)c1OC [3j, N-(4-(2H-benzo[d][1,2,3]triazol-2-yl)phenyl)-3,4,5-trimethoxybenzamide] | > 30 | > 30 | > 100 | > 100 | > 100 | > 100 | melting point: 227 to 229 °C |

| SMILES | EC50 [1, 9] [µM] | CC50 (in vitro [2]) [µM] | CC50 (in vitro [3]) [µM] | CC50 (in vitro [4]) [µM] | CC50 (in vitro [5]) [µM] | CC50 (in vitro [6]) [µM] | other results |
| --- | --- | --- | --- | --- | --- | --- | --- |
| Cc1cc2nn(-c3ccc(NC(=O)NC4CCCCC4)cc3)nc2cc1C [4n] | > 30 | > 30 | > 100 | 95 | > 100 | > 100 | – |
| COc1ccc(C(=O)Nc2ccc(-n3nnc4cc(Cl)c(Cl)cc43)cc2)cc1 [1i] | > 30 | > 30 | > 100 | – | – | – | – |
| CC(=O)Nc1ccc(-n2nc3cc(Cl)c(Cl)cc3n2)cc1 [2b] | > 30 | > 30 | > 100 | – | – | – | – |
| O=C(Nc1ccc(-n2nc3cc(Cl)c(Cl)cc3n2)cc1)c1ccc([N+](=O)[O-])cc1 [2h] | > 30 | > 30 | > 100 | – | – | – | – |
| CCCCNC(=O)Nc1ccc(-n2nc3ccccc3n2)cc1 [3m] | > 30 | > 30 | > 100 | > 100 | > 100 | > 100 | – |
| CCNC(=O)Nc1ccc(-n2nc3cc(C)c(C)cc3n2)cc1 [4k] | > 30 | > 30 | > 100 | > 100 | > 100 | > 100 | – |
| CCNC(=O)Nc1ccc(-n2nc3ccccc3n2)cc1 [3k] | > 30 | > 30 | > 100 | > 100 | – | > 100 | – |
| CCC(=O)Nc1ccc(-n2nc3cc(Cl)c(Cl)cc3n2)cc1 [2c] | > 30 | > 30 | > 100 | – | – | – | – |
| O=C(Nc1ccc(-n2nc3cc(Cl)c(Cl)cc3n2)cc1)NC1CCCCC1 [2n] | ≤ 5 | > 30 | 71 | – | – | – | Selectivity Index [1]: > 7.5; EC50 [1]: 4 µM; effect on viral titer (result in words) (HTNV [8]): significant reduction of viral titer |
| COc1ccc(C(=O)Nc2ccc(-n3nc4cc(Cl)c(Cl)cc4n3)cc2)cc1 [2i] | > 30 | > 30 | > 100 | – | ≥ 100 | – | – |
| NC(=O)c1nc(F)c[nH]c1=O [Favipiravir] | – | – | – | – | – | – | EC50 (HTNV [7]): 151 µM |
| CCCNC(=O)Nc1ccc(-n2nc3ccccc3n2)cc1 [3l] | > 30 | > 30 | > 100 | > 100 | > 100 | > 100 | – |
| Cc1ccc(C(=O)Nc2ccc(-n3nnc4cc(Cl)c(Cl)cc43)cc2)cc1 [1f] | > 30 | > 30 | ≥ 100 | – | – | – | – |
| Cc1ccc(C(=O)Nc2ccc(-n3nc4cc(Cl)c(Cl)cc4n3)cc2)cc1 [2f] | 22 | > 30 | > 100 | – | – | – | – |
| Cc1ccc(C(=O)Nc2ccc(-n3nc4ccccc4n3)cc2)cc1 [3f, N-(4-(2H-benzo[d][1,2,3]triazol-2-yl)phenyl)-4-methylbenzamide] | > 30 | > 30 | > 100 | > 100 | > 100 | > 100 | melting point: 266 to 268 °C |
| Nc1ccc(-n2nc3cc(Cl)c(Cl)cc3n2)cc1 [2a] | > 30 | > 30 | > 100 | ≥ 100 | – | – | – |
| CCNC(=O)Nc1ccc(-n2nc3cc(Cl)c(Cl)cc3n2)cc1 [2k] | 26 | > 30 | > 100 | – | – | – | – |
| O=C(Nc1ccc(-n2nnc3cc(Cl)c(Cl)cc32)cc1)c1ccc([N+](=O)[O-])cc1 [1h] | 21 | > 30 | 96 | – | – | – | – |
| CCCC(=O)N(C(=O)CCC)c1ccc(-n2nnc3cc(Cl)c(Cl)cc32)cc1 [1e] | > 25 | 25 | 16 | – | – | – | – |
